Experiments:
[1] = biological target: Beta-2 adrenergic receptor (Homo sapiens, UniProt P07550); type: functional, cell-based
Cannabinoid receptor 1 [2] = biological target: T1, Cannabinoid receptor 1 (Homo sapiens, UniProt P21554); type: functional, cell-based
Cannabinoid receptor 1 [3] = biological target: T1, Cannabinoid receptor 1; type: functional, cell-based; remark: listed apart in the source
[4] = biological target: T2, Gastrin/cholecystokinin type B receptor (Homo sapiens, UniProt P32239)
T2 sequence (P32239 whole entry): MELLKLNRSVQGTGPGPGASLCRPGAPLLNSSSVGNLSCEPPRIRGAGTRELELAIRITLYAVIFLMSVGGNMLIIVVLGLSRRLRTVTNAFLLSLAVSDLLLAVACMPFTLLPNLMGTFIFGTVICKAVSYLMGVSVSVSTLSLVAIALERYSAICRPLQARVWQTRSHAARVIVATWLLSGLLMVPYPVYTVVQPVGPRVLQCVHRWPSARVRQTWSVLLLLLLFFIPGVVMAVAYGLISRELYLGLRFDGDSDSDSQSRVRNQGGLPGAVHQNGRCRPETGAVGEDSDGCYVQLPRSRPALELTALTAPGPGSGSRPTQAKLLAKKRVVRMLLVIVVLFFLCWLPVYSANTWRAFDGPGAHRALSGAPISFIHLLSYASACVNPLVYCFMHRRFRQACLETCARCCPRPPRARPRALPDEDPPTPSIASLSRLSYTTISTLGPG

Thromboxane A2 receptor = biological target: T3, Thromboxane A2 receptor (Homo sapiens, UniProt P21731)
T3 sequence (P21731 whole entry): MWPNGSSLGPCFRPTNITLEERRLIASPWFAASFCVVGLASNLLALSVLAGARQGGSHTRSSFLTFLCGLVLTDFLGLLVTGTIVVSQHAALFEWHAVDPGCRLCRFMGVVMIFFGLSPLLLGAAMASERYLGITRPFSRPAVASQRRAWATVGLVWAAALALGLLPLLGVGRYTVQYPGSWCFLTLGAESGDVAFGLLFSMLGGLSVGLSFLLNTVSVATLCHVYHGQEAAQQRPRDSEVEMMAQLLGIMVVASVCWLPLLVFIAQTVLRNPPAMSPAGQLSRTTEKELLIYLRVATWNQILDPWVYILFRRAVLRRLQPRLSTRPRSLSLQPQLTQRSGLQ

Vasopressin V1a receptor = Vasopressin V1a receptor (Homo sapiens, UniProt P37288)
Chain of Vasopressin V1a receptor (P37288 whole entry): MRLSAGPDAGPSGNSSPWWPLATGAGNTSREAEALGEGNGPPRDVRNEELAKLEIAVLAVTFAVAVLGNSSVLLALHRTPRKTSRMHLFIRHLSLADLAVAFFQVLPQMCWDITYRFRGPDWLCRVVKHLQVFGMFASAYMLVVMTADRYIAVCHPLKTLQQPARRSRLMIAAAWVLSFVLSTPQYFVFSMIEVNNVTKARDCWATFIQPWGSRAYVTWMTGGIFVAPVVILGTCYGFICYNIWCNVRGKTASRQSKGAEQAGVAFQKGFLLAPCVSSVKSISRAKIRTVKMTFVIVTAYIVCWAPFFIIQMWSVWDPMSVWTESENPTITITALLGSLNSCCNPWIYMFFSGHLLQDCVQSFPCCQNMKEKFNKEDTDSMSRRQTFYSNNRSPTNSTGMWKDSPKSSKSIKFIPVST

[5] = biological target: T4, Alpha-1A adrenergic receptor (Homo sapiens, UniProt P35348)
T4 sequence (P35348 whole entry): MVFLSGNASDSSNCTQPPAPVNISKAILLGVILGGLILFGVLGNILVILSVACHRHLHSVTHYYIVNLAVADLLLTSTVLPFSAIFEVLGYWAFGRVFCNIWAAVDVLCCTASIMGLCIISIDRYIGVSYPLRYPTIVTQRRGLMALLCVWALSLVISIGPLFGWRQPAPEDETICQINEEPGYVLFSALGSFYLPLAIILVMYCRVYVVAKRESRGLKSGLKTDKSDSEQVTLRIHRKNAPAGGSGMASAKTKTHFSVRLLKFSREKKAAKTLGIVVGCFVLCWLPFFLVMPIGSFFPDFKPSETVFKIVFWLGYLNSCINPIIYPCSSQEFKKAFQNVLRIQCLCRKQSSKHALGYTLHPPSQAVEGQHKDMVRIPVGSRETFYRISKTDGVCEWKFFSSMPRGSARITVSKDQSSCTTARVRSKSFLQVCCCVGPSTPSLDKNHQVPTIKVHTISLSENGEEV

[6] = biological target: Prostaglandin G/H synthase 1 (Homo sapiens, UniProt P23219); type: functional
Chain of Prostaglandin G/H synthase 1 (P23219 whole entry): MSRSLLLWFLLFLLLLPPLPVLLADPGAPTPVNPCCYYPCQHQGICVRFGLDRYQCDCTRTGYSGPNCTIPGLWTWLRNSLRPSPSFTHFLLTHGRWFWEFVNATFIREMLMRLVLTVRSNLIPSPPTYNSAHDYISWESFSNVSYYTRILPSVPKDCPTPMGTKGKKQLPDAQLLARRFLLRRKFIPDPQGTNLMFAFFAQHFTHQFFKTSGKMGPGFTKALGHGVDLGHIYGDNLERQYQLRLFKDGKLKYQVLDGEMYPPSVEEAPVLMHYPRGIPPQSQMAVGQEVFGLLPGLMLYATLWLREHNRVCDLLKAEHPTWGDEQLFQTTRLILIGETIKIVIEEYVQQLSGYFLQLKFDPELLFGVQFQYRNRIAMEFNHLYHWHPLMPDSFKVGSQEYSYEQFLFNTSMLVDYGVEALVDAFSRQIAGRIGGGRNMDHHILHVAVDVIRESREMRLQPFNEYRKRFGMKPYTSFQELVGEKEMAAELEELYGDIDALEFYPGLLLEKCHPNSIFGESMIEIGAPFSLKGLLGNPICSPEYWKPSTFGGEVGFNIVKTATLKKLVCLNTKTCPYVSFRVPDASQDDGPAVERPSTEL
Further: assay procedure not described here.

Chain of Beta-2 adrenergic receptor (P07550 whole entry): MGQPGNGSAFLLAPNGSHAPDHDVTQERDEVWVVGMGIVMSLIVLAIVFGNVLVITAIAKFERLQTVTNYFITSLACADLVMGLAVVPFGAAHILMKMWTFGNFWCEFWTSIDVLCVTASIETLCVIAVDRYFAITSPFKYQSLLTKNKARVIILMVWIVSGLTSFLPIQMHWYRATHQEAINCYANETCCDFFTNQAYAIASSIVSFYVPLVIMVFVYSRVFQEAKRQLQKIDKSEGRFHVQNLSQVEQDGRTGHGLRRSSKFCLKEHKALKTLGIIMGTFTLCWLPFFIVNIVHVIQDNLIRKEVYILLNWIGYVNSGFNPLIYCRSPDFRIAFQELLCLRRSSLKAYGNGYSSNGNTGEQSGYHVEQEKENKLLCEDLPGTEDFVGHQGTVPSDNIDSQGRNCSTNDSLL
T1 sequence (P21554 whole entry): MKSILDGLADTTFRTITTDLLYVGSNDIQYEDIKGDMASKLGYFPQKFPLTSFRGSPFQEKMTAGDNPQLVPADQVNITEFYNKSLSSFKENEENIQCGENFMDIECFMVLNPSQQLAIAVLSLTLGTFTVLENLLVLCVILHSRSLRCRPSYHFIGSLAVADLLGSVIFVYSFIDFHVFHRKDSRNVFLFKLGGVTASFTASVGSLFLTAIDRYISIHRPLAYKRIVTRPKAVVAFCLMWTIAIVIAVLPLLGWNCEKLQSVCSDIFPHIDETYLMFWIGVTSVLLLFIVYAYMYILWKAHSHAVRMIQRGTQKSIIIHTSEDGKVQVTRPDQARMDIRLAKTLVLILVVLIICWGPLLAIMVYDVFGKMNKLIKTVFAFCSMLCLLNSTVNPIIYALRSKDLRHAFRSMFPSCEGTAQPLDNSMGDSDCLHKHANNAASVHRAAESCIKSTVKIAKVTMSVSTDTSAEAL

SMILES | AC50 [1] [µM] | AC50 (Cannabinoid receptor 1 [2]) [µM] | AC50 (Cannabinoid receptor 1 [3]) [µM] | AC50 [4] [µM] | AC50 (Thromboxane A2 receptor) [µM] | AC50 (Vasopressin V1a receptor) [µM] | AC50 [5] [µM] | AC50 [6] [µM]
C[N+](C)(C)CCOP(=O)([O-])OC[C@H](O)CO | > 30 | > 30 | > 30 | > 30 | > 30 |  |  | 
CN(C)C/C=C/C(=O)Nc1cc2c(Nc3ccc(F)c(Cl)c3)ncnc2cc1O[C@H]1CCOC1 [AFATINIB] | > 30 | > 30 | > 30 | > 30 |  | > 30 |  | 
CCC1(c2ccc(N)cc2)CCC(=O)NC1=O (stereo unspecified) [AMINOGLUTETHIMIDE] | > 30 | > 30 | > 30 | > 30 | > 30 |  |  | 
CC(Cc1cccc(C(F)(F)F)c1)NCCOC(=O)c1ccccc1 (stereo unspecified) [BENFLUOREX] | > 30 | > 30 |  | > 30 | > 30 | > 30 |  | 
O=C(O)COCCN1CCN(C(c2ccccc2)c2ccc(Cl)cc2)CC1 (stereo unspecified) [CETIRIZINE] | > 30 | > 30 | > 30 | > 30 | > 30 | > 10 | > 10 | 
NC[C@H]1CC[C@H](C(=O)Oc2ccc(CCC(=O)O)cc2)CC1 [CETRAXATE] | > 30 | > 30 | > 30 |  |  |  |  | > 30
CC(=O)O[C@]1(C(C)=O)CC[C@H]2[C@@H]3C=C(Cl)C4=CC(=O)[C@@H]5C[C@@H]5[C@]4(C)[C@H]3CC[C@@]21C [CYPROTERONE ACETATE] |  |  |  | > 30 | > 30 | > 10 | > 10 | > 30
CNCCc1ccc(OC(=O)C(C)C)c(OC(=O)C(C)C)c1 [IBOPAMINE] | 9.93 | > 30 | > 30 | > 30 | > 30 | > 30 | > 30 | 
CN(C)CCCN1c2ccccc2CCc2ccccc21 [IMIPRAMINE] | > 30 | > 30 | > 30 | > 30 | > 30 | > 10 | 0.0804 | 
CCC[C@@H]1C[C@@H](C(=O)N[C@@H]([C@H]2O[C@H](SC)[C@H](O)[C@@H](O)[C@H]2O)[C@@H](C)O)N(C)C1 [LINCOMYCIN] | > 30 | > 30 | > 30 |  | > 10 | > 10 | > 10 | 
COC(=O)C1=C(C)NC(C)=C(C(=O)OCCN2CCN(C(c3ccccc3)c3ccccc3)CC2)C1c1cccc([N+](=O)[O-])c1 (stereo unspecified) [MANIDIPINE 6300] | > 30 | > 30 | 26 | > 30 | > 30 | > 30 |  | 
CN(Cc1cnc2nc(N)nc(N)c2n1)c1ccc(C(=O)N[C@@H](CCC(=O)O)C(=O)O)cc1 [METHOTREXATE] | > 30 | > 30 | > 30 | > 30 | > 30 | > 30 | > 10 | 
OC[C@H]1O[C@@H](n2cnc3c2NC=NC[C@H]3O)C[C@@H]1O [PENTOSTATIN] | > 30 | > 30 | > 30 | > 30 |  | > 30 |  | 
CC(C)c1cccc(C(C)C)c1O [PROPOFOL] | > 30 | > 30 | > 30 |  |  |  |  | 
CCCN1CC(NS(=O)(=O)N(CC)CC)CC2Cc3c(O)cccc3CC21 (stereo unspecified) [QUINAGOLIDE] | > 30 | > 30 | > 30 | > 30 | > 30 | > 30 | 29 | 
O=C1OC(OC(=O)c2cccnc2Nc2cccc(C(F)(F)F)c2)c2ccccc21 (stereo unspecified) [TALNIFLUMATE] | > 30 | > 30 | > 30 | > 30 | > 30 | > 30 |  | 
C[C@]12C=CC(=O)C=C1CC[C@@H]1[C@@H]2CC[C@]2(C)OC(=O)CC[C@@H]12 [TESTOLACTONE] | > 30 | > 30 | > 30 |  | > 10 | > 10 | > 10 | 
